Patent publication US20120322124A1, “CONTROL OF CONTAMINANT MICROORGANISMS IN FERMENTATION PROCESSES WITH SYNERGISTIC FORMULATIONS CONTAINING STABILIZED CHLORINE DIOXIDE AND QUATERNARY AMMONIUM COMPOUND” (E. I. DU PONT DE NEMOURS AND COMPANY, priority 2010, published 2012)

Assays:
Assay type in all cases: cell-based
[1] = test system: Lactobacillus brevis; test: Checkerboard assay of SCD with a quaternary ammonium compound against Lactobacillus brevis; design: key: no inhibition of growth (NI); partial inhibition (PI); complete inhibition (CI); conditions: SCD 0 ppm, MRS broth pH 5.5, 28 hours at 32° C.
Text: In this example, stabilized chlorine dioxide (SCD) and a quaternary ammonium chloride (QAC) mixture were used in a checkerboard assay to determine whether their interaction was synergistic against Lactobacillus brevis. The checkerboard assay method is used to analyze interactions between compounds by mixing them in increasing concentrations to determine whether the compounds act synergistically, additively or antagonistically. (See, M. Najjar, D. Kashtanov, M Chikindas, Letters in Applied Microbiology, vol. 45 (2007) 13-18.) L. brevis was cultured overnight in MRS broth (deMan Rogosa and Sharp broth, Difco Laboratories, Inc., Sparks, M.D.) at 32° C. The culture was then diluted and resuspended in fresh MRS broth adjusted to pH 5.5. The number of bacteria in the resuspended culture was determined using standard plate counts. Samples were diluted (1:10) in sterile phosphate-buffered saline (Sigma-Aldrich Co., St. Louis, Mo.) and plated onto the surface of MRS plates. The resuspended culture […] was then used to fill the wells of a 96 well plate (Becton, Dickinson and Co., Franklin Lakes, N.J.). SCD (FermaSure® fermentation additive, E. I. du Pont de Nemours and Co., Wilmington Del.) and a quaternary ammonium compound (BTC 1010, a solution of didecyl dimethyl ammonium chloride, DDAC, Stepan Company, Northfield, Ill.) were then added at the concentrations shown in the “checkerboard” plate diagram below. The plate was covered and incubated for 28 hours at 32° C. Following incubation, the plate was removed and the optical density of each well was determined using a plate reader at 630 nm (PowerWave, BioTek Instruments Inc., Winooski, Vt.). Based on the optical density, each well was scored to determine whether there was no inhibition of growth (NI), partial inhibition (PI), or complete inhibition (CI).
To determine whether any synergistic activity occurred between SCD and the quaternary ammonium compound, the fractional inhibitory concentration (FIC) was determined using the formula:
FIC=[SCD]/MICSCD+[DDAC]/MICDDAC
where [SCD] and [DDAC] are the concentrations of SCD and BTC 1010 that result in partial inhibition and MICSCD and MICDDAC are the minimum inhibitor concentration of SCD and DDAC, respectively. Synergy between the two antimicrobials is determined when the resulting FIC is <1.0.
In this example, SCD (FermaSure® fermentation additive, E. I. du Pont de Nemours and Co., Wilmington Del.) and a second quaternary ammonium compound (BTC 2125, a mixture of n-alkyl dimethyl benzyl ammonium chlorides and n-alkyl dimethyl ethylbenzyl ammonium chlorides, ADBAC/ADEBAC, Stepan Company, Northfield, Ill.) were used in a checkerboard assay to determine whether their interaction was synergistic against Lactobacillus brevis. L. brevis was cultured as above, resuspended in MRS at pH 5.5, and then added […] the wells of a 96 well plate (Becton Dickinson, Franklin Lakes, N.J.). […] Following incubation, the plate was removed and the optical density of each well was determined using a plate reader at 630 nm. Based on the optical density, each well was scored to determine whether there was no inhibition (NI), partial inhibition (PI), or complete inhibition (CI).
To determine whether any synergistic activity occurred between SCD and the ADBAC/ADEBAC quaternary ammonium compound, the fractional inhibitory concentration (FIC) was determined as above using the formula: […]

[2] = test system: Viable bacteria; test: Bench-scale successive fermentations with yeast recycle stream from a molasses-based ethanol plant, viable bacteria enumerated
Method: In this example, samples of recycle streams comprising primarily inoculant yeast were collected from a molasses-based ethanol plant in Brazil. The samples were used to complete bench-scale fermentations in which the samples were treated with a combination of SCD (FermaSure® fermentation additive, E. I. du Pont de Nemours and Co., Wilmington Del.) with didecyl dimethyl ammonium chloride (BTC 1010, a solution of didecyl dimethyl ammonium chloride, DDAC, same as in Example 1), as quaternary compound. The treated samples were used to carry out successive 8-hour long fermentations, using recovered yeast at the end of each cycle to begin the next run. Viable bacteria were enumerated over 5 fermentation cycles. Results are provided in Table 3 where ND means the combination was not tested.

[3] = test system: lactic acid bacteria; test: Molasses-based recycle stream treated with SCD, QAC or both: viable bacteria
Method: (§1) In this example, a molasses-based fermentation medium was prepared and inoculated with both yeast and lactic acid bacteria. The medium comprised various components as follows:
(§2) Following inoculation, the mixed culture was grown overnight in the molasses medium, after which a recycle stream was prepared by centrifuging the broth at 3000 rpm for 5 minutes. The resulting pellet was separated from the supernatant and reconstituted using sterile deionized water, then adjusted to pH 3.0 using sulfuric acid. 5 ml portions of the reconstituted pellet were then treated as follows: • 1. Untreated • 2. QAC only (60 ppm) • 3. SCD (45 ppm) • 4. SCD/QAC (45 ppm/60 ppm)
(§3) The SCD was FermaSure® fermentation additive, E. I. du Pont de Nemours and Co., Wilmington Del. The quaternary ammonium compound (QAC) was the same DDAC (BTC 1010, Stepan Company, Northfield, Ill.) as used in Example 1.
(§4) Samples were stored in a shaking incubator at 32° C. for 2 hours following which 0.1 ml aliquots were serially diluted and plated on selective media to enumerate surviving yeast and bacteria cells. […] Following this cycle, the SCD and SCD/QAC treated samples were centrifuged as before, and the number of viable yeast and bacterial cells in the resulting pellet was determined.

[4] = test system: yeast; test: Molasses-based recycle stream treated with SCD, QAC or both: viable yeast; conditions: QAC only (60 ppm), pH 3.0, 32° C.
Method: as §1, §2, §3, §4

[5] = SCD 0 ppm, DDAC 60 ppm, yeast recycle stream, 8-hour fermentations

SMILES: CCCCCCCCCC[N+](C)(C)CCCCCCCCCC.[Cl-] [DDAC, didecyl dimethyl ammonium chloride]
- inhibition of growth score based on optical density at 630 nm ([1]; DDAC 2 ppm): PI
- inhibition of growth score based on optical density at 630 nm ([1]; DDAC 4 ppm): PI
- inhibition of growth score based on optical density at 630 nm ([1]; DDAC 5 ppm): PI
- inhibition of growth score based on optical density at 630 nm ([1]; DDAC 6 ppm): PI
- inhibition of growth score based on optical density at 630 nm ([1]; DDAC 7 ppm): CI
- Log Viable Bacteria Cycle 1 [2, 5]: 7.79
- Log Viable Bacteria Cycle 2 [2, 5]: 7.97
- efficacy against viable bacteria, in words ([2]; treatments of Table 3 (45 ppm SCD and 60 ppm DDAC; 60 ppm DDAC alone), through 5 cycles of fermentation): did not result in any significant inactivation of bacteria
- Viable Cells (2 hrs) Bacteria ([3]; QAC only (60 ppm), pH 3.0, 32° C., 2 hours): 8.1 logCFU per milliliter
- number of viable bacteria, in words ([3]; treatments of Table 4 (QAC 60 ppm, SCD 45 ppm, SCD/QAC 45 ppm/60 ppm)): did not result in any reduction in viable bacterial cells
- Viable Cells (2 hrs) Yeast [4]: 8.8 logCFU per milliliter
